This is an account of results in paper PMC10815436, “Toward New AQP4 Inhibitors: ORI-TRN-002” (International Journal of Molecular Sciences, 2024).

One data set has as its system AQP4. Also on record: method as in PMID 32506554, PMID 30934923. The note with it: cited from earlier work.
Data set [1] in a line: Octanol-water distribution coefficient at pH 7.4 (Origenis BRAINstorm platform, affinity chromatography). In kind it is physicochemical. An excerpt:
(§1) To evaluate the potential drug-like properties of the electronic homologue ORI-TRN-002, we measured the compound’s properties in the Origenis BRAINstorm™ platform. This platform uses affinity chromatography under standard conditions and standard calibrants to measure compound properties with high accuracy and reproducibility. […] It supersedes the solubility and free fraction limitations of the Aeromics/Simcere drug AER-270 [21] (Figure 2). ORI-TRN-002 requires no prodrug approach and serves as an ideal starting point for further optimization.
(§2) The chemical structures of the three AQP4 inhibitors studied and their measured physico-chemical properties (logD at pH 7.4, log10 of molar human serum albumin affinity constant, percent human plasma protein binding, log10 of human alpha acid glycoprotein affinity constant, unbound fraction in liver, and unbound fraction in hepatocytes). TEXT PRINTED IN THE PICTURE: TGN-020: logD: 0.04; logKaHSA: 3.51; hPPB%: 68.20; logKaRSA: 2.72; logKaAGP: 1.18; fu, liver: 1.00; fu, hep: 0.92 | AER-270: logD: 3.31; logKaHSA: 5.46; hPPB%: 99.50; logKaRSA: 5.26; logKaAGP: 6.94; fu, liver: <0.01; fu, hep: <0.01 | ORI-TRN-002: logD: -0.07; logKaHSA: 2.99; hPPB%: 39.20; logKaRSA: 2.89; logKaAGP: 1.88; fu, liver: 1.00; fu, hep: 0.95

The next data set concerns the target human serum albumin (Homo sapiens, UniProt P02768). The data set can be described thus: Human serum albumin affinity (BRAINstorm affinity chromatography). It is filed as binding.
From the text: as §1, §2

The target in a further data set is rat serum albumin (Rattus norvegicus, UniProt P02770). Kind of data set: Rat serum albumin affinity (BRAINstorm affinity chromatography). In kind it is binding.
From the text: as §1, §2

Data set [2] is described as follows: Percentage of binding to human plasma proteins (BRAINstorm). In kind it is in vitro ADME.
From the text: as §1, §2

Data set [3] in a line: Unbound fraction in liver (BRAINstorm). It is filed as in vitro ADME.
From the text: as §1, §2

Data set [4] is described as follows: Unbound fraction in hepatocytes (BRAINstorm). In kind it is in vitro ADME.
From the text: as §1, §2

For another data set, the system named is human AQP4. As to conditions: cited from earlier work.
The test system of the next data set is AQP4-expressing oocytes. The data set can be described thus: Membrane potential of treated AQP4-expressing oocytes (toxicity check). It is filed as cell-based, Xenopus laevis.
The target in the next data set is rat AQP4 (Rattus norvegicus, UniProt P47863). The data set can be described thus: Osmotic water permeability of rat AQP4-expressing Xenopus laevis oocytes (high-resolution volume recording, hyposmotic challenge). The note with it: IC50 for rAQP4 (AQP4-mediated water permeability), rat AQP4 in Xenopus laevis oocytes, different concentrations, n = 6, mean ± SEM.
A further data set concerns AQP4.M23. Also on record: method as in PMID 17178220. As to conditions: oocytes; cited from earlier work.
Data set [5] has as its system cerebral edema. As to conditions: cited from earlier work.
For data set [6], the system named is cerebral edema. Also on record: method as in doi:10.1097/01.ccm.0000473851.20338.3b, PMID 29635589. As to conditions: various traumatic brain injury models; cited from earlier work.
[7] abbreviates: read-out: logKaHSA (log10 of molar human serum albumin affinity constant) (converted).
The mark [8] stands for this setting: read-out: logKaRSA (rat serum albumin affinity) (converted).
The mark [9] stands for this setting: human plasma proteins, read-out: hPPB% (percent human plasma protein binding) (converted).
The mark [10] stands for this setting: liver, read-out: fu, liver (unbound fraction in liver).
Where [11] appears, read: read-out: fu, hep (unbound fraction in hepatocytes).

“And” between values parts separate entries of the source, which are not always exact repeats. Equal entries are not always repeated. Where two headings read alike, the source gives them in different places.

human serum albumin, sequence (P02768 25-609): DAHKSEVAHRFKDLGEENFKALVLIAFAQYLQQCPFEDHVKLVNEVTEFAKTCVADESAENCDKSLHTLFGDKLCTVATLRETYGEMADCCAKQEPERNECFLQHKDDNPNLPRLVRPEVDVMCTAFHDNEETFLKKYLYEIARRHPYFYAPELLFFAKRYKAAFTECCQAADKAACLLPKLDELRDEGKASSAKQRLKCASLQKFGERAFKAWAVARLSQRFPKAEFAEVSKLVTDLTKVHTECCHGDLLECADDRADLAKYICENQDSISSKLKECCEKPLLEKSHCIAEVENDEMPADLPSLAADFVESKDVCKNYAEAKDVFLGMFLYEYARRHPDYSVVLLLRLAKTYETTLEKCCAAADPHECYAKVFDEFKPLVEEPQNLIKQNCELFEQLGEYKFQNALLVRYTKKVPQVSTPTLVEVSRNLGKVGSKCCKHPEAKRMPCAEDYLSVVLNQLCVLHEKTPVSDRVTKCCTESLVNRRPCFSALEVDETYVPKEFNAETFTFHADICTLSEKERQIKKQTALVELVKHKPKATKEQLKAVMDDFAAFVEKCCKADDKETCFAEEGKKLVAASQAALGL
rat serum albumin, sequence (P02770 25-608): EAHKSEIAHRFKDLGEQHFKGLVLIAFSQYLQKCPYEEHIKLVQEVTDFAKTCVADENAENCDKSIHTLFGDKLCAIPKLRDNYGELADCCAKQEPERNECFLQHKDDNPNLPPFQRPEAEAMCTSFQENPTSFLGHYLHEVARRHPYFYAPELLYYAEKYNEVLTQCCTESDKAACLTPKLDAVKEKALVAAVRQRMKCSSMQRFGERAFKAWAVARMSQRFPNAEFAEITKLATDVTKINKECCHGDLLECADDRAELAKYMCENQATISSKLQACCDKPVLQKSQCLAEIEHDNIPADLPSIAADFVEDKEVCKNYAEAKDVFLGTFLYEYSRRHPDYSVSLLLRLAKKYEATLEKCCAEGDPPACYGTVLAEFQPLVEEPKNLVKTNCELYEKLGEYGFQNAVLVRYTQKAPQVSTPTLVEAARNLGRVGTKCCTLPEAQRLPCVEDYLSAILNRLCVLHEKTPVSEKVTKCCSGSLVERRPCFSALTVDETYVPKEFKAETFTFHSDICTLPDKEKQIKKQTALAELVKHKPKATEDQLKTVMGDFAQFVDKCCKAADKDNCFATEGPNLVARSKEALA
rat AQP4, sequence (P47863 23-323): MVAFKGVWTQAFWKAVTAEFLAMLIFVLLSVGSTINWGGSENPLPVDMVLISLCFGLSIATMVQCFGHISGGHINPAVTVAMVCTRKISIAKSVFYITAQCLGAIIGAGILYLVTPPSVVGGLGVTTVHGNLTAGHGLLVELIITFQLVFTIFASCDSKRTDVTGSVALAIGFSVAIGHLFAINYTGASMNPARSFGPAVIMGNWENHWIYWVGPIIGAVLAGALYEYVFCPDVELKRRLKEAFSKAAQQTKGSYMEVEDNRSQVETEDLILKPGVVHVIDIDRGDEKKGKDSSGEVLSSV
From the text for AQP4-expressing oocytes: Following the introduction of an abrupt hyposmotic challenge (−100 mOsm), we determined the osmotic water permeability of the oocytes during the continuous recording of the oocyte volume with a high-resolution volume recording system. This experimental setup allows for the osmotic gradient to be introduced at a faster rate than the rate of cell volume change and sufficiently fast data acquisition to obtain several data points at the initial linear part of the cell volume change, which is required to obtain the osmotic water permeability of an AQP-expressing oocyte. […] The oocytes were exposed to the novel drugs (or control solution) for 60 min. prior to the determination of water permeability. The established AQP4 blockers, TGN-020 and AER-270, served as positive controls.
From the text for rat AQP4: To resolve ORI-TRN-002’s inhibitory effect on AQP4, rat AQP4 (rAQP) was heterologously expressed in Xenopus laevis oocytes, and the AQP4-mediated water permeability was quantified. Following the introduction of an abrupt hyposmotic challenge (−100 mOsm), we determined the osmotic water permeability of the oocytes during the continuous recording of the oocyte volume with a high-resolution volume recording system. This experimental setup allows for the osmotic gradient to be introduced at a faster rate than the rate of cell volume change and sufficiently fast data acquisition to obtain several data points at the initial linear part of the cell volume change, which is required to obtain the osmotic water permeability of an AQP-expressing oocyte. The native oocyte membrane has a low inherent water permeability, thus the uninjected oocytes display a negligible background (see Figure 3A for summarized data on osmotic water permeabilities; compare 0.21 ± 0.13 × 10^−3 cm s^−1, n = 9, for uninjected oocytes to 3.80 ± 0.33 × 10^−3 cm s^−1, n = 11, for AQP4-expressing oocytes; representative volume traces shown as insets)). The oocytes were exposed to the novel drugs (or control solution) for 60 min. prior to the determination of water permeability. The established AQP4 blockers, TGN-020 and AER-270, served as positive controls. […]

For the compound `CC[N+](CC)(CC)CC` [tetraethylammonium (TEA), tetraethylammonium], the “block of AQP4-mediated water permeability” value (“block” for short) in the data set on AQP4 is listed as “not be effective blockers”.
For orientation: chromatographic logD means lipophilicity estimated from chromatographic retention. The low end stands for lower lipophilicity, the high end for higher lipophilicity. Consider `O=C(Nc1cc(C(F)(F)F)cc(C(F)(F)F)c1)c1cc(Cl)ccc1O` [AER-270, N-[3,5-bis (trifluoromethyl)phenyl]-5-chloro-2-hydroxybenzamide], for which the chromatographic logD in [1] was determined as 3.31. Also, the Kd is 3.47 µM at human serum albumin and 5.5 µM on rat serum albumin. Also, the fraction unbound is 0.005 in [2] (plasma), below 0.01 in data set [3] and below 0.01 in data set [4]. Besides, the “maximal inhibition of human AQP4” value in the data set on human AQP4 is on record as 20%.
As usually defined, the IC50 is the concentration that inhibits the measured activity by half. Regarding `O=c1[nH]c(-c2cccnc2)nc2[nH]ncc12` [ORI-TRN-002, 6-(pyridin-3-yl)-1H-pyrazolo[3,4-d]pyrimidin-4(5H)-one], the “membrane potential of treated oocytes” value in the data set with AQP4-expressing oocytes (20 μM acute application, 10 min, non-treated -25.6 ± 0.50 mV, n = 9) is given as −26.9 ± 0.61 mV; in the data set with AQP4-expressing oocytes (20 µM, 60 min, non-treated −26.2 ± 0.62 mV, n = 12) it was −24.4 ± 0.74 mV. In addition, the chromatographic logD in data set [1] (octanol/water) is -0.07. The Kd was 1020 µM at human serum albumin (setting [7]) and 1290 µM at rat serum albumin (setting [8]). For the same compound, the fraction unbound is 0.608 in data set [2] (setting [9]), 1 in data set [3] (setting [10]) and 0.95 in data set [4] (setting [11]). Besides, the IC50 on rat AQP4 is ~3 µM and 2.9 µM.
For the compound `CCCCNc1cc(C(=O)O)cc(S(N)(=O)=O)c1Oc1ccccc1` [bumetanide], in the data set on AQP4, the “block” value is recorded as “not be effective blockers”.
In the case of `CC(=O)Nc1nnc(S(N)(=O)=O)s1` [acetazolamide], in the data set on AQP4, the “block” value is “not be effective blockers”.
As for `CCOc1ccc2nc(S(N)(=O)=O)sc2c1` [Ethoxyzolamide], in the data set with AQP4.M23, the “inhibition of AQP4.M23” value is “inhibit”.
In the case of `O=C(Nc1cc(C(F)(F)F)cc(C(F)(F)F)c1)c1cc(Cl)ccc1OP(=O)(O)O` [AER-271, 2-([3,5-Bis(trifluoromethyl)phenyl]carbamoyl)-4-chlorophenyl dihydrogen phosphate], in the data set with cerebral edema [5] (rodent model of transient MCAO), the AQP4-mediated cerebral edema entry is “selectively and effectively reduced”; the neurological outcome was “improved”. Besides, the “swelling in two models of CNS injury complicated by cerebral edema” value with cerebral edema [5] (water intoxication and ischemic stroke modeled by MCAO) is “reduce swelling”. Moreover, in the data set with cerebral edema [6], the “reduction of cerebral edema” value is recorded as “ineffective”.
In data set [1] (octanol/water), `O=C(Nc1nncs1)c1cccnc1` [TGN-020, 2-(nicotinamide)-1,3,4-thiadiazole] had a chromatographic logD of 0.04. Also, the results for the Kd at human serum albumin (setting [7]) and on rat serum albumin (setting [8]) were 309 µM and 1910 µM, respectively. For the same compound, the figures for the fraction unbound in data set [2] (setting [9]), in [3] (setting [10]) and in [4] (setting [11]) were 0.318, 1 and 0.92, respectively.
For `CCCCNc1cc(C(=O)Nc2ccncc2)cc(S(N)(=O)=O)c1Oc1ccccc1` [AqB013], the “block” value with AQP4 is “not be effective blockers”.
